Values after ≈ are worked out from the molar mass of the structure shown. Active and inactive are the calls of the source. No cut-off for these calls is given here.
Columns and labels:
[1] = AUC (0 to t) in ICR mouse at 45 mg/kg, po measured after 0.083 to 12 hrs by UPLC-MS/MS analysis; assay type: ADME, organism-based; design: dose 45 mg/kg, time upper 12 hrs, time lower 0.083 hrs, route po; conditions: in vivo
[2] = MRT (0 to t) in ICR mouse at 10 mg/kg, iv measured after 0.083 to 12 hrs by UPLC-MS/MS analysis; assay type: ADME, organism-based; conditions: in vivo, time 0.083-12 hrs
[3] = Apparent volume of distribution in ICR mouse at 45 mg/kg, po measured after 0.083 to 12 hrs by UPLC-MS/MS analysis; assay type: ADME, organism-based; conditions: in vivo, time 0.083-12 hrs
[4] = Drug elimination in ICR mouse kidney at 100 mg/kg, ip measured for 1.5 hrs by UPLC-MS/MS analysis; assay type: ADME, organism-based; conditions: in vivo
[5] = Drug elimination in ICR mouse lung at 100 mg/kg, ip measured for 1.5 hrs by UPLC-MS/MS analysis; assay type: ADME, organism-based; conditions: in vivo
[6] = Drug distribution in ICR mouse Spleen at 100 mg/kg, ip measured upto 0.5 hrs by UPLC-MS/MS analysis; assay type: ADME, organism-based; conditions: in vivo
[7] = Solubility of the compound in PBS/DMSO (95/5% V/V) at pH 7.2 to 7.4; assay type: physicochemical
[8] = Drug distribution in ICR mouse kidney at 100 mg/kg, ip measured upto 0.5 hrs by UPLC-MS/MS analysis; assay type: ADME, organism-based; conditions: in vivo
[9] = AUC(0 to t) in ICR mouse at 10 mg/kg, iv measured after 0.083 to 12 hrs by UPLC-MS/MS analysis; assay type: ADME, organism-based; design: time upper 12 hrs, dose 10 mg/kg, time lower 0.083 hrs, route iv; conditions: in vivo
[10] = Clearance in ICR mouse at 45 mg/kg, po measured after 0.083 to 12 hrs by UPLC-MS/MS analysis; assay type: ADME, organism-based; conditions: in vivo, time 0.083-12 hrs
[11] = Oral bioavailability in ICR mouse at 45 mg/kg measured after 0.083 to 12 hrs by UPLC-MS/MS analysis; assay type: ADME, organism-based; conditions: in vivo, time 0.083-12 hrs
HepG2 [12] = assay: Antitumor activity against human HepG2 cells xenografted in BALB/c nude mouse assessed as reduction in tumor weight at 45 mg/kg, po qd administered daily for 21 consecutive days and measured on day 21; assay type: functional, organism-based; conditions: time <= 21.0 day
[13] = Solubility of the compound in saline/PEG400 (80/20% V/V) at pH 7.4; assay type: physicochemical
[14] = Toxicity in ICR mouse assessed as change in body weight at 45 mg/kg, po qd measured for 14 days; assay type: organism-based; conditions: in vivo, 336 h, time 14 day
[15] = Acute toxicity in ip dosed ICR mouse assessed as maximum tolerated dose; assay type: organism-based; conditions: in vivo
HepG2 [16] = assay: Antitumor activity against human HepG2 cells xenografted in BALB/c nude mouse assessed as reduction in tumor weight at 1 to 9 mg/kg, iv qd administered daily for 21 consecutive days measured on day 21; assay type: functional, organism-based; conditions: dose 1-9 mg/kg, time 21.0 day
[17] = Acute toxicity in po dosed ICR mouse assessed as maximum tolerated dose; assay type: organism-based; conditions: in vivo
[18] = Stability of the compound in PBS at pH 4 to 9 measured at 25 degree C measured of 7 days by HPLC analysis; assay type: physicochemical; conditions: buffer, pH 4, 168 h; time 7 day
[19] = Toxicity in ICR mouse assessed as effect on lung at 45 mg/kg, po measured after 2 weeks by H and E staining based analysis; assay type: organism-based; conditions: in vivo, 336 h
Bel-7402 = assay: Antiproliferative activity against human Bel-7402 cells by MTT assay; assay type: functional, cell-based
[20] = Solubility of the compound in saline/PEG400 (95/5% V/V) at pH 7.4; assay type: physicochemical
[21] = Toxicity in ICR mouse assessed as effect on heart at 45 mg/kg, po measured after 2 weeks by H and E staining based analysis; assay type: organism-based; conditions: in vivo, 336 h
[22] = Solubility of the compound in saline/DMSO (95/5% V/V) at pH 7.4; assay type: physicochemical
[23] = Stability of the compound in absence of light of 100 lux measured of 3 days by HPLC analysis; assay type: physicochemical; conditions: 72 h; time 3 day
[24] = Drug distribution in ICR mouse duodenum at 100 mg/kg, ip measured upto 0.5 hrs by UPLC-MS/MS analysis; assay type: ADME, organism-based; conditions: in vivo
[25] = Toxicity in ICR mouse assessed as mortality at 100 mg/kg, ip qd measured for 14 days; assay type: organism-based; conditions: in vivo, 336 h, time 14 day
[26] = Hepatotoxicity in ICR mouse assessed as change in blood AST level at 45 mg/kg, po by biochemical assay; assay type: toxicity, organism-based; conditions: in vivo
[27] = Toxicity in BALB/c mouse xenografted with human HepG2 cells assessed as change in body weight at 1 to 9 mg/kg, iv qd at 45 mg/kg, po treated daily for 21 days measured every 3 days upto 21 days; assay type: organism-based; conditions: in vivo, 504 h, dose 1-9 mg/kg, time < 21 day
[28] = biological target: Voltage-gated inwardly rectifying potassium channel KCNH2 (Homo sapiens, UniProt Q12809); assay: Inhibtion of hERG transfected in HEK293 cells by whole cell patch clamp method; assay type: toxicity, cell-based
[29] = Renal toxicity in ICR mouse assessed as change in blood UA level at 45 mg/kg, po by biochemical assay; assay type: organism-based; conditions: in vivo
[30] = Solubility of the compound in saline/solutol HS-15 (90/10% V/V) at pH 7.4; assay type: physicochemical
[31] = Toxicity in ICR mouse assessed as effect on spleen at 45 mg/kg, po measured after 2 weeks by H and E staining based analysis; assay type: organism-based; conditions: in vivo, 336 h
[32] = Toxicity in ICR mouse assessed as effect on liver at 45 mg/kg, po measured after 2 weeks by H and E staining based analysis; assay type: organism-based; conditions: in vivo, 336 h
[33] = MRT (0 to t) in ICR mouse at 45 mg/kg, po measured after 0.083 to 12 hrs by UPLC-MS/MS analysis; assay type: ADME, organism-based; conditions: in vivo, time 0.083-12 hrs
[34] = Renal toxicity in ICR mouse assessed as change in blood BUN level at 45 mg/kg, po by biochemical assay; assay type: organism-based; conditions: in vivo
[35] = Drug distribution in ICR mouse lung at 100 mg/kg, ip measured upto 0.5 hrs by UPLC-MS/MS analysis; assay type: ADME, organism-based; conditions: in vivo
[36] = Hepatotoxicity in ICR mouse assessed as change in blood ALP level at 45 mg/kg, po by biochemical assay; assay type: toxicity, organism-based; conditions: in vivo
[37] = Toxicity in ICR mouse assessed as change in body weight at 100 mg/kg, ip qd measured for 14 days; assay type: organism-based; conditions: in vivo, 336 h, time 14 day
[38] = Toxicity in ICR mouse assessed as mortality at 45 mg/kg, po qd measured for 14 days; assay type: organism-based; conditions: in vivo, 336 h, time 14 day
[39] = Drug elimination in ICR mouse liver at 100 mg/kg, ip measured for 1.5 hrs by UPLC-MS/MS analysis; assay type: ADME, organism-based; conditions: in vivo
[40] = Cmax in ICR mouse at 10 mg/kg, iv measured after 0.083 to 12 hrs by UPLC-MS/MS analysis; assay type: ADME, organism-based; design: time 0.083-12 hrs, dose 10 mg/kg, route iv; conditions: in vivo
[41] = Half life in ICR mouse at 45 mg/kg, po measured after 0.083 to 12 hrs by UPLC-MS/MS analysis; assay type: ADME, organism-based; conditions: in vivo, time 0.083-12 hrs

Sequence of Voltage-gated inwardly rectifying potassium channel KCNH2 (Q12809 whole entry): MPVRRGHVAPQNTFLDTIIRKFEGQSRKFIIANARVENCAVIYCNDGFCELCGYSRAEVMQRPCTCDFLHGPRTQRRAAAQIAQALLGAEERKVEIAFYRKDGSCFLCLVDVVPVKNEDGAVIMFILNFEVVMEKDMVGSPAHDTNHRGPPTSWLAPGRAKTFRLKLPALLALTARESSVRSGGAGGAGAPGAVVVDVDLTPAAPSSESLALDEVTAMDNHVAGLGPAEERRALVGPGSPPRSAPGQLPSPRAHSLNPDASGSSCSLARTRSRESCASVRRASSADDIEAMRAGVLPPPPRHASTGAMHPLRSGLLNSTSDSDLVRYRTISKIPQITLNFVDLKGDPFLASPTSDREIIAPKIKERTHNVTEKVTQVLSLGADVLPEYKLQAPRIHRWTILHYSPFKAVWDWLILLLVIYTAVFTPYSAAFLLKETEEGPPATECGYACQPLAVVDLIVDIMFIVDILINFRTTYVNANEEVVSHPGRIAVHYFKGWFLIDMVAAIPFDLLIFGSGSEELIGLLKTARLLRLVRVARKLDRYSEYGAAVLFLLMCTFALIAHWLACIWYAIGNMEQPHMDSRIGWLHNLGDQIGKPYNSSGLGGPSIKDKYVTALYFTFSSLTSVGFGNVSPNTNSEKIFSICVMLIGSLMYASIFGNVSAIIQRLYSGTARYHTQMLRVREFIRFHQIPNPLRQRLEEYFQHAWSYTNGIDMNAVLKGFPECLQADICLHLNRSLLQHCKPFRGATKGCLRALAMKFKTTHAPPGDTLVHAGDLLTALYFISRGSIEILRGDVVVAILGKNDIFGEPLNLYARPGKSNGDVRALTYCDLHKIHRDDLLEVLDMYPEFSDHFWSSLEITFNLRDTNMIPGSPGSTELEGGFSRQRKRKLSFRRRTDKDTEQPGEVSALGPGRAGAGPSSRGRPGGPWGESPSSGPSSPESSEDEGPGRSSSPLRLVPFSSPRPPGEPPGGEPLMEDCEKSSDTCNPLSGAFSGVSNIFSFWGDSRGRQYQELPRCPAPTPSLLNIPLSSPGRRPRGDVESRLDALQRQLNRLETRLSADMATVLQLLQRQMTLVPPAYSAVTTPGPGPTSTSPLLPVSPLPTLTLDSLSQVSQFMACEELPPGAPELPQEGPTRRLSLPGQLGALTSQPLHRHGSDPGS

C[C@H]1CCC/C=C/[C@@H]2C[C@H](OC(=O)OCc3cccnc3)C[C@H]2[C@H](O)/C=C/C(=O)O1
AUC(0-t) [1]: 52.9 ng·h/mL
MRT last [2]: 0.84 h
Vz [3]: 6339.7436 L/kg
Drug excretion [4]: Active
Drug excretion [5]: Active
Drug uptake [6]: Active
solubility [7]: < 1000 µg/mL
Drug uptake [8]: Active
AUC(0-t) [9]: 519 ng·h/mL
CL/F [10]: 598 L/h/kg
bioavailability [11]: 2.26%
Activity (HepG2 [12]): Active
solubility [13]: < 1000 µg/mL
Activity [14]: Non-Toxic
MTD [15]: > 100 mg/kg
Activity (HepG2 [16]): Active
MTD [17]: > 750 mg/kg
Stability [18]: Stable
Activity [19]: Non-Toxic
IC50 (Bel-7402): 70 nM
solubility [20]: < 1000 µg/mL
Activity [21]: Non-Toxic
solubility [22]: < 1000 µg/mL
Stability [23]: Stable
Drug uptake [24]: Active
Activity [25]: Non-Toxic
Activity [26]: Non-Toxic
Activity [27]: Non-Toxic
IC50 [28]: > 30000 nM
Activity [29]: Non-Toxic
solubility [30]: 5000 µg/mL (≈ 12000 µM)
Activity [31]: Non-Toxic
Activity [32]: Non-Toxic
MRT last [33]: 2.92 h
Activity [34]: Non-Toxic
Drug uptake [35]: Active
Activity [36]: Non-Toxic
Activity [37]: Non-Toxic
Activity [38]: Non-Toxic
Drug excretion [39]: Active
Cmax [40]: 2060 ng/mL
half-life [41]: 7.35 h

Source: ChEMBL document CHEMBL5113532, “Design and Characterization of a Natural Arf-GEFs Inhibitor Prodrug CHNQD-01255 with Potent Anti-Hepatocellular Carcinoma Efficacy In Vivo” (J Med Chem, 2022)
